Active and inactive are the calls of the source. The calls are words filed in the database; no cut-off is given here.
Experiments:
[1] = target: Proto-oncogene tyrosine-protein kinase Src (Homo sapiens, UniProt P12931); experiment: Inhibition of SRC (unknown origin)
[2] = target: T1, Signal transducer and activator of transcription 3 (Homo sapiens, UniProt P40763); experiment: Thermal stabilization of STAT3 in human BXPC-3 cells at 10 microM at 44.6 degreeC incubated for 1 hrs by cellular thermal shift assay; format: cell-based
[3] = tested on: BXPC-3; experiment: Anti-proliferative activity against human BXPC-3 cells assessed as cell growth inhibition incubated for 72 hrs by MTS assay; format: functional, cell-based; settings: BXPC-3, 72 h
[4] = tested on: Mus musculus; experiment: In vivo inhibition of STAT3 in BALB/c mouse xenografted with human BXPC-3 cells assessed as inhibition of STAT3 phosphorylation at Ser 727 at 30 mg/kg,po administrated once daily for 8 weeks by immunohistochemical analysis; format: functional, organism-based
[5] = target: T1, Signal transducer and activator of transcription 3; experiment: Inhibition of STAT3 in human BXPC-3 cells assessed as inhibition of STAT3 phosphorylation at Ser 727 at 30 nM incubated for 4 to 24 hrs by western blot analysis; format: cell-based; settings: time 4-24 hrs, TDE = time-dependent effect
[6] = tested on: PC-3; experiment: Anti-proliferative activity against human PC-3 cells assessed as cell growth inhibition incubated for 72 hrs by MTS assay; format: functional, cell-based; settings: PC-3, 72 h
[7] = tested on: Mus musculus; experiment: In vivo inhibition of STAT3 in BALB/c mouse xenografted with human BXPC-3 cells assessed as inhibition of STAT3 phosphorylation at Tyr 705 at 30 mg/kg,po administrated once daily for 8 weeks by immunohistochemical analysis; format: functional, organism-based
[8] = Cmax in BALB/c mouse at 1 mg/kg,iv measured upto 24 hrs by LC-MS/MS analysis; format: ADME, organism-based; design: dose 1 mg/kg, time < 24 hrs, route iv; settings: in vivo
[9] = Toxicity in BALB/c mouse xenografted with human BXPC-3 cells assessed as effect on liver at 10 mg/kg,po administrated once daily for 8 weeks by H and E staining based microscopic analysis; format: organism-based; settings: in vivo, 1344 h
[10] = target: T1, Signal transducer and activator of transcription 3; experiment: Inhibition of STAT3 in human Capan-2 cells assessed as inhibition of IL-6 stimulated STAT3 phosphorylation at Tyr 705 at 1 to 30 nM by western blot assay; format: cell-based; settings: dose 1-30 nM, DDE = dose-dependent effect
[11] = tested on: BXPC-3; experiment: Inhibition of mitochondrial respiration in human BXPC-3 cells at 1 to 30 nM incubated for 1 hr by seahorse XF96 flux analyzer; format: functional, cell-based; settings: dose 1-30 nM, DDE = dose-dependent effect
[12] = target: T1, Signal transducer and activator of transcription 3; experiment: Thermal stabilization of STAT3 in human BXPC-3 cells at 10 microM at 50.6 degreeC incubated for 1 hrs by cellular thermal shift assay; format: cell-based
[13] = target: Tyrosine-protein kinase JAK1 (Homo sapiens, UniProt P23458); experiment: Inhibition of JAK1 (unknown origin)
[14] = target: T1, Signal transducer and activator of transcription 3; experiment: Inhibition of STAT3 in human BXPC-3 cells assessed as reduction of Cyclin D1 expression at 1 to 30 nM incubated for 22 to 24 hrs by western blot analysis; format: cell-based; settings: dose 1-30 nM, time 22-24 hrs, DDE = dose-dependent effect
[15] = target: T1, Signal transducer and activator of transcription 3; experiment: Inhibition of STAT3 in human BXPC-3 cells assessed as reduction of c-Myc expression at 1 to 30 nM incubated for 22 to 24 hrs by western blot analysis; format: cell-based; settings: dose 1-30 nM, time 22-24 hrs, DDE = dose-dependent effect
[16] = target: Mitogen-activated protein kinase 8 (Homo sapiens, UniProt P45983); experiment: Inhibition of JNK1 (unknown origin)
[17] = target: T1, Signal transducer and activator of transcription 3; experiment: Inhibition of STAT3 in human BXPC-3 cells assessed as inhibition of IL-6 stimulated nuclear STAT3 phosphorylation at Tyr 705 at 1 to 30 nM by western blot assay; format: cell-based; settings: dose 1-30 nM
[18] = Clearance at steady state in BALB/c mouse at 1 mg/kg,iv measured upto 24 hrs by LC-MS/MS analysis; format: ADME, organism-based; settings: BALB/c, in vivo
[19] = target: T1, Signal transducer and activator of transcription 3; experiment: Inhibition of STAT3 in human Capan-2 cells assessed as reduction of c-Myc expression at 30 nM incubated for 4 to 24 hrs by western blot analysis; format: cell-based; settings: time 4-24 hrs, TDE = time-dependent effect
[20] = target: Cytochrome P450 2D6 (Homo sapiens, UniProt P10635); experiment: Inhibition of CYP2D6 in human liver microsomes using dextromethorphan as substrate incubated for 60 mins in presence of NADPH by HPLC analysis; format: ADME, Microsome
[21] = Toxicity in BALB/c mouse xenografted with human BXPC-3 cells assessed as effect on kidney at 30 mg/kg,po administrated once daily for 8 weeks by H and E staining based microscopic analysis; format: organism-based; settings: in vivo, 1344 h
[22] = target: T1, Signal transducer and activator of transcription 3; experiment: Inhibition of STAT3 in human BXPC-3 cells assessed as inhibition of IL-6 stimulated cytoplasmic STAT3 phosphorylation at Tyr 705 at 1 to 30 nM by western blot assay; format: cell-based; settings: dose 1-30 nM
[23] = tested on: CFPAC-1; experiment: Inhibition of mitochondrial respiration in human CFPAC-1 cells assessed as reduction in maximal respiration rate at 1 to 30 nM incubated for 1 hr by seahorse XF96 flux analyzer; format: functional, cell-based; settings: dose 1-30 nM, DDE = dose-dependent effect
[24] = Microsomal stability in rat liver microsomes assessed as intrinsic clearance incubated upto 40 mins in presence of NADPH by LC-MS/MS analysis; format: ADME, Microsome; settings: read-out: CLH
[25] = Microsomal stability in human liver microsomes assessed as compound remaining incubated for 60 mins in presence of NADPH by LC-MS/MS analysis; format: ADME, Microsome; settings: read-out: Stability
[26] = Toxicity in BALB/c mouse xenografted with human BXPC-3 cells assessed as effect on kidney at 10 mg/kg,po administrated once daily for 8 weeks by H and E staining based microscopic analysis; format: organism-based; settings: in vivo, 1344 h
[27] = AUC (0-infinity) in BALB/c mouse at 1 mg/kg,iv measured upto 24 hrs by LC-MS/MS analysis; format: ADME, organism-based; design: dose 1 mg/kg, time < 24 hrs, route iv; settings: in vivo
[28] = target: T1, Signal transducer and activator of transcription 3; experiment: Inhibition of STAT3 in human BXPC-3 cells assessed as inhibition of STAT3 phosphorylation at Ser 727 at 10 nM incubated for 22 to 24 hrs by western blot analysis; format: cell-based; settings: time 22-24 hrs
[29] = target: T1, Signal transducer and activator of transcription 3; experiment: Inhibition of STAT3 in human Capan-2 cells assessed as inhibition of STAT3 phosphorylation at Tyr 705 at 30 nM incubated for 4 to 24 hrs by western blot analysis; format: cell-based; settings: time 4-24 hrs, TDE = time-dependent effect
[30] = target: T1, Signal transducer and activator of transcription 3; experiment: Inhibition of STAT3 in human Capan-2 cells assessed as reduction of Cyclin D1 expression at 30 nM incubated for 4 to 24 hrs by western blot analysis; format: cell-based; settings: time 4-24 hrs, TDE = time-dependent effect
[31] = AUC (0-infinity) in BALB/c mouse at 10 mg/kg,po measured upto 24 hrs by LC-MS/MS analysis; format: ADME, organism-based; design: time < 24 hrs, dose 10 mg/kg, route po; settings: in vivo

T1 sequence (P40763 whole entry): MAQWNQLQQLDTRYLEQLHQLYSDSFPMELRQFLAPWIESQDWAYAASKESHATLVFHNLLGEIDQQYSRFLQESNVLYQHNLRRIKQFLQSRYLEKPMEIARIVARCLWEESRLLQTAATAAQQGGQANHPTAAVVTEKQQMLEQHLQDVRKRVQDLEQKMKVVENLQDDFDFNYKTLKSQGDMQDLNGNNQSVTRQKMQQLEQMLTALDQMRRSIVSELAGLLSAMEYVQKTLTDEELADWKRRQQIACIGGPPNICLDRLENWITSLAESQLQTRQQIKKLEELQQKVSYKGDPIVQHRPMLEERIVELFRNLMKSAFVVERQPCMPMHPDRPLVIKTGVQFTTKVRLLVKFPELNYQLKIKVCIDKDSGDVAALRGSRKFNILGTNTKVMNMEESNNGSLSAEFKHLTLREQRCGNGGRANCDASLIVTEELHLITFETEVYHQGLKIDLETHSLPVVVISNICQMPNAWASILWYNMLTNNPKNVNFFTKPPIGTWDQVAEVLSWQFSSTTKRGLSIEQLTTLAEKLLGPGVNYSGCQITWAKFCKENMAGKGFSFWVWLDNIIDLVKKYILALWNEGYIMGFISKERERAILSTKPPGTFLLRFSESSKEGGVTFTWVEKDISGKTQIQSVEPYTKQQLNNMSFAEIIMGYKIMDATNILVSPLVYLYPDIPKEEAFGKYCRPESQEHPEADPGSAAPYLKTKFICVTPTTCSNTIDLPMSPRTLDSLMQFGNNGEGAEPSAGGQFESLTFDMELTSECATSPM
Sequence of Proto-oncogene tyrosine-protein kinase Src (P12931 2-536 limits assumed): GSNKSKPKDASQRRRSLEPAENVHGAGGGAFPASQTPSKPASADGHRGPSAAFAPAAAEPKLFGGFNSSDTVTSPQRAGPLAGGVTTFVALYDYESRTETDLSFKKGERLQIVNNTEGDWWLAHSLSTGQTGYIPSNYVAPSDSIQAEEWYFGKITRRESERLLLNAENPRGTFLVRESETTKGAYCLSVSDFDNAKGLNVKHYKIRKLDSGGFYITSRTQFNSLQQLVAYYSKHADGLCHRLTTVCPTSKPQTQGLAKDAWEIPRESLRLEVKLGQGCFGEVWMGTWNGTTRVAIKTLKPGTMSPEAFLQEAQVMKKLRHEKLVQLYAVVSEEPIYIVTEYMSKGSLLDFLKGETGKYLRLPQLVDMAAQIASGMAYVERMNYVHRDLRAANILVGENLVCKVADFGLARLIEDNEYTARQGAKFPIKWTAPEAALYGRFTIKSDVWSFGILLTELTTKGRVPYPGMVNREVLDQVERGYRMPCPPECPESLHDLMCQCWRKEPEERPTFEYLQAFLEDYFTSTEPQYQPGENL
Sequence of Tyrosine-protein kinase JAK1 (P23458 whole entry): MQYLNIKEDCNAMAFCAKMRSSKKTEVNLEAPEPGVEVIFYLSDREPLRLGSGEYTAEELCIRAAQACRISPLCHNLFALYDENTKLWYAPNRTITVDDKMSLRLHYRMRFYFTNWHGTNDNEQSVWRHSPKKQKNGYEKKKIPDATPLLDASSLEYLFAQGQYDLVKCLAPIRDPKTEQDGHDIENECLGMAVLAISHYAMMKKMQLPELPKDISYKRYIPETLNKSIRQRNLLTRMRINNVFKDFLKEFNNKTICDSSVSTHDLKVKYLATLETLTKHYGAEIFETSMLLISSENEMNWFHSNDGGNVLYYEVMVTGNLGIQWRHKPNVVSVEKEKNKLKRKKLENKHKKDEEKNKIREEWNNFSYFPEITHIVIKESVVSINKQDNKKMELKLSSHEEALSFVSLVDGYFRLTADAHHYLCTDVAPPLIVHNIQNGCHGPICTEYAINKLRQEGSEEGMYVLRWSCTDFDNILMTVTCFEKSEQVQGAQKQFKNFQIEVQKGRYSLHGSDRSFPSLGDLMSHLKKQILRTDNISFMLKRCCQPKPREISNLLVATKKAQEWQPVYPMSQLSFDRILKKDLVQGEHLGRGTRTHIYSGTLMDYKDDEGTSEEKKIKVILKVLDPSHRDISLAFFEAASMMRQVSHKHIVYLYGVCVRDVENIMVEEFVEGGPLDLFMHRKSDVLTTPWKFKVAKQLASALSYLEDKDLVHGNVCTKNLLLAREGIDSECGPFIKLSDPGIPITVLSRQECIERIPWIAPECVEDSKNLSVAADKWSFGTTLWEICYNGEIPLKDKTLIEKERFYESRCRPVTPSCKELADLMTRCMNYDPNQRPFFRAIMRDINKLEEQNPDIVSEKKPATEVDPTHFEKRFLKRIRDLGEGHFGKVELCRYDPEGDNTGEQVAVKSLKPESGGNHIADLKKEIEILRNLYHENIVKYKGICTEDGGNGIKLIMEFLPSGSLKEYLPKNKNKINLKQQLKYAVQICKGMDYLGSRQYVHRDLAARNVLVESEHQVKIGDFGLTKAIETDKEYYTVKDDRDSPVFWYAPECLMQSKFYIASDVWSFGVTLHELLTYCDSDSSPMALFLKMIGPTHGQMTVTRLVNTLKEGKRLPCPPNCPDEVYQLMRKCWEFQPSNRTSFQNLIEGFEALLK
Sequence of Cytochrome P450 2D6 (P10635 whole entry): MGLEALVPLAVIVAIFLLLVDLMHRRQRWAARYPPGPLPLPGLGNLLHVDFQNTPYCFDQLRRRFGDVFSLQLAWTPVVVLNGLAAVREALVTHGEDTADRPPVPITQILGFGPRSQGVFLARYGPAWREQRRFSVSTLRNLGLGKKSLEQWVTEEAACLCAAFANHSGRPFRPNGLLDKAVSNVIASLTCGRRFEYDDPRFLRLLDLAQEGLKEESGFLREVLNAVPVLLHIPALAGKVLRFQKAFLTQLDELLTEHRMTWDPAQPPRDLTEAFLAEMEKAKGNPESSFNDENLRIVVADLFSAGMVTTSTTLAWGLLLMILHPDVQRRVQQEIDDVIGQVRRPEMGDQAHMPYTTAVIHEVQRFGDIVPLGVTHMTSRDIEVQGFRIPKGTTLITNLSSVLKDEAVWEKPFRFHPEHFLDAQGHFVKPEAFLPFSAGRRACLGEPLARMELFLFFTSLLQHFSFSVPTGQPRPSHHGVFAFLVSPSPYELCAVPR
Sequence of Mitogen-activated protein kinase 8 (P45983 whole entry): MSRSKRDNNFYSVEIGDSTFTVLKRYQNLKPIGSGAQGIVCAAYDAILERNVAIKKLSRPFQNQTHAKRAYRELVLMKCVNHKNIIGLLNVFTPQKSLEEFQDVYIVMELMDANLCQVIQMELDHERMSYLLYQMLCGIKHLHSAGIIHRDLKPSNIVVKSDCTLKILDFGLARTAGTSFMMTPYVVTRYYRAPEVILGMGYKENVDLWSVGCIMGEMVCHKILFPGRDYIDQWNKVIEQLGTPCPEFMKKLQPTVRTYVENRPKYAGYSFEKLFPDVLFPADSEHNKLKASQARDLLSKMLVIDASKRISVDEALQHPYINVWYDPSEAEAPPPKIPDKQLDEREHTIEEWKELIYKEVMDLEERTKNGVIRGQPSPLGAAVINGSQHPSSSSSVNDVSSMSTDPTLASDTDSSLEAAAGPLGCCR

- IC50 [1]: > 10 µM
- Activity [2]: Active
- IC50 [3]: 0.0004 µM
- inhibition [5]: Tde
- IC50 [6]: > 1 µM
- Cmax [8]: 2570 ng/mL
- inhibition [10]: Dde
- Activity [12]: Active
- IC50 [13]: > 10 µM
- inhibition [14]: Dde
- inhibition [15]: Dde
- IC50 [16]: > 10 µM
- inhibition [17]: Active
- clearance [18]: 1.43 mL/min/kg
- inhibition [19]: Tde
- IC50 [20]: > 50 µM
- inhibition [22]: Active
- microsomal CLint [24]: 16.9 µL/min/mg
- remaining at 1 h [25]: 59.5%
- AUC(0-inf) [27]: 11600 ng·h/mL
- inhibition [28]: Active
- inhibition [29]: Tde
- inhibition [30]: Tde
- AUC(0-inf) [31]: 34900 ng·h/mL
SMILES: COc1ccc(-c2noc(-c3cnc(Oc4ccc5cc(C(=O)N6CCN(Cc7ccc(OCC(F)(F)F)cc7)CC6)n(C)c5c4)cn3)n2)cc1
- inhibition [4]: Active
- inhibition [7]: Active
- Activity [9]: Non-Toxic
- inhibition [11]: Dde
- Activity [21]: Non-Toxic
- inhibition [23]: Dde
- Activity [26]: Non-Toxic
